# In patent US9757415B2, “Composition comprising solanum glaucophyllum for preventing and/or treating hypocalcaemia and for stabilizing blood calcium levels” (HERBONIS AG, priority 2009, dated 2017):
# Key:
# [1] = test system: cows; assay: In vivo experiment, single oral bolus in cows: serum calcium and phosphate
# Text: The control group only received pectin.
# [2] = in vivo; settings: female, brown, Fleckvieh and Holstein, cow, serum, po, 500 ng
# Description: Twenty-five cows of the races brown, Fleckvieh and Holstein of a weight of approximately 500-600 kg weight and including lactating and non-lactating subjects were allocated to 5 treatment groups as detailed in Table 6 blow. The animals were given a single dose of the test preparation orally per bolus. Blood was taken at time 0 (before application) and at days 1, 2, 3, 4, 5, 7, 9 and 11 following application. From the blood, serum was prepared and calcium (total), phosphate and 1,25-(OH)2 vitamin D3 was analyzed according to established clinico-chemical methods.
# Treatment: all test preparations were applied to the animal as one single bolus in a gelatine capsule (length 7 cm, diameter 2.2 cm and volume 24 mL, Capsula GmbH, Ratingen, Germany) with the aid of a usual bolus applicator. The volume that was not filled with tablets was filled up with pectin as inert excipient. The control group only received pectin.
# The boluses contained, in accordance with the treatment group, instant release tablets as described in Example 3 (groups 2 and 4) and retard release tablets as prepared in Example 4 (groups 1 and 4).
# [3] = day 0 (before application), n = 5, single oral bolus
# [4] = day 2, n = 5, single oral bolus
# [5] = day 3, n = 5, single oral bolus
# [6] = day 4, n = 5, single oral bolus
# [7] = day 5, n = 5, single oral bolus
# [8] = day 7, n = 5, single oral bolus
# [9] = day 9, n = 5, single oral bolus
# [10] = day 11, n = 5, single oral bolus
structure (smiles),measurement,setting,value
"C=C1/C(=C\C=C2/CCC[C@]3(C)[C@@H]([C@H](C)CCCC(C)(C)O)CC[C@@H]23)C[C@@H](O)C[C@@H]1O [Group 3, 1,25-dihydroxyvitamin D3]",Serum calcium (mean ± standard deviation),[1]; [3],2.40 ± 0.2 ^ mmol/L
same,Serum phosphate (mean ± standard deviation),[1]; [3],2.30 ± 0.07 mmol/L
same,Serum calcium (mean ± standard deviation),"[1]; day 1, n = 5, single oral bolus",2.64 ± 0.05 E mmol/L
same,Serum calcium (mean ± standard deviation),[1]; [4],2.67 ± 0.09 Ed mmol/L
same,Serum phosphate (mean ± standard deviation),[1]; [4],2.81 ± 0.25 ED mmol/L
same,Serum calcium (mean ± standard deviation),[1]; [5],2.72 ± 0.09 E mmol/L
same,Serum phosphate (mean ± standard deviation),[1]; [5],3.05 ± 0.19 Ed mmol/L
same,Serum calcium (mean ± standard deviation),[1]; [6],2.72 ± 0.06 E mmol/L
same,Serum phosphate (mean ± standard deviation),[1]; [6],3.24 ± 0.34 E mmol/L
same,Serum calcium (mean ± standard deviation),[1]; [7],2.61 ± 0.02 E mmol/L
same,Serum phosphate (mean ± standard deviation),[1]; [7],2.60 ± 0.32 E mmol/L
same,Serum calcium (mean ± standard deviation),[1]; [8],2.57 ± 0.06 e^ mmol/L
same,Serum phosphate (mean ± standard deviation),[1]; [8],2.43 ± 0.23 e mmol/L
same,Serum calcium (mean ± standard deviation),[1]; [9],2.56 ± 0.09 ^ mmol/L
same,Serum phosphate (mean ± standard deviation),[1]; [9],2.05 ± 0.44 mmol/L
same,Serum calcium (mean ± standard deviation),[1]; [10],2.45 ± 0.02 ^ mmol/L
same,Serum phosphate (mean ± standard deviation),[1]; [10],2.10 ± 0.16 mmol/L
same,concentration at 0 day,[2],0.02 ng/mL
same,concentration at 1 day,[2],0.243 ng/mL
same,concentration at 2 day,[2],0.15 ng/mL
same,concentration at 3 day,[2],0.056 ng/mL
same,concentration at 4 day,[2],0.04 ng/mL
same,concentration at 5 day,[2],0.046 ng/mL
same,concentration at 7 day,[2],0.03 ng/mL
same,concentration at 9 day,[2],0.023 ng/mL
same,concentration at 11 day,[2],0.025 ng/mL
